We go through four molecules from patent US20020187484A1, “Molecular break lights probes for detecting nucleotide cleavage” (priority 2000, published 2002).

Marks after values point to notes of the source that are not given here.

The test system of the assay is break light A. Nature of the assay: Molecular break light assay: cleavage of break light A by enediynes and Fe^+2-dependent agents. Type of assay: biochemical. The following applies: for agent concentration at maximum turnover: [A] = 32 nM; for Vmax: 37° C.; for effect of ascorbate on DNA-cleavage: addition of ascorbate; for agent concentration at maximum turnover (Vapp/[cleavage agent]): [molecular break light A] = 3.2 nM. Here is the method:
Samples were analyzed with a FluoroMax-2 spectrofluorometer equipped with DataMax for Windows (Instruments S. A., Inc.; Edison, N.J.) and the temperature controlled (30° C., unless otherwise noted) by a Haake Circulator DC10. All samples were filtered prior to analysis and analyzed via a timebase scan (λex=485 nm, λEm=517 nm) in a Suprasil quartz cuvette (10 mm path) fitted with a magnetic stirring bar in a total volume of 2 mL. […] Total cleavage of the labeled oligonucleotide, confirmed by polyacrylamide gel electrophoresis (PAGE), was defined as the maximum fluorescence emission possible under saturated cleaving conditions. Emission units were converted to the amount of labeled oligonucleotide used within a procedure, thereby equating labeled oligonucleotide degradation as a function of the emission of fluorescence.
Enediyne antibiotics calicheamicin and esperamicin at varying concentrations (0.31, 0.78, 1.6, 3.2, 15.9, and 31.7 nM) were incubated in 40 mM Tris-HCl (pH 7.5) with 3.2 nM of the calicheamicin-specific labeled molecular break light oligonucleotide (A). DNA cleavage was initiated with the addition of 1 μL 100 mM dithiothreitol (“DTT”) to produce a final concentration of 50 μM DTT, and the reaction was monitored over 10 minutes via spectrofluorometry.
Pseudo-first order kinetic parameters were utilized to determine the initial velocities at each given enediyne concentration. Specifically, graphical representation of the data was based upon equation 2 where [A]t is the concentration of cleaved oligonucleotide at a given time (t) and [A]0 is the initial concentration of oligonucleotide in the assay. Least squares analysis gave the slope (k), or rate, which was converted to V by the relationship in equation 3. The maximum velocity achieved (Vmax) was then selected from the range of concentrations examined.
ln[A]t=−kt+ln[A]0 [Equation 2]
Bleomycin, an Fe^+2-dependent nucleic acid cleavage agent, is a natural metabolite from Streptomyces verticillus. Blenoxane (a mixture containing approximately 70% bleomycin A2 and 30% bleomycin B2) was dissolved in water & optically standardized (ε291=1.7×10^4M^−1 cm^−1). Bleomycin mediated cleavage was adapted from procedures outlined by Giloni et al. J. Biol. Chem. 256: 8608-8615 (1981). Several different concentrations of bleomycin (200 nM, 100 nM, 50 nM, 25 nM, 12.5 nM, 5 nM, and 2.5 nM) were incubated in 50 mM sodium phosphate, 2.5 mM ascorbate, at pH 7.5 and 37° C. with 3.2 nM of the molecular break light A.
The reaction was initiated by the addition of 65 mM Fe(II) and monitored over 5 minutes. This protocol was repeated with the addition of 5 mM sodium ascorbate to the above conditions. Pseudo-first order kinetic parameters were utilized to determine the initial velocities at each given bleomycin concentration as previously described.
In a first assay, 3.2 nM break light A was incubated in 40 mM Tris HCl and 2.5 mM ascorbate at 37° C. and pH 7.5. Cleavage was initiated by addition of MPE/Fe(II) in a 1.2:1 molar ratio to various concentrations. Final Fe(II) concentrations were 8 μM, 4 μM, 2 μM, 1 μM, 500 nM, 250 nM, and 125 nM.
In a second assay, 32 nM molecular break light A was incubated in 40 mM Tris and 2.5 mM sodium ascorbate at pH 7.5 and 37° C. Cleavage was initiated by addition of MPE/Fe(II) in a 1.2:1 molar ratio to various concentrations. Final Fe(II) concentrations were 50 nM, 125 nM, 250 nM, 500 nM, 1 μM, and 2 μM.
In a third assay, 32 nM break light A (calicheamicin-specific molecular break light oligonucleotide) was incubated in 40 mM Tris and 2.5 mM sodium ascorbate at pH 7.5 and 37° C.

Setting [1] is: [DNA]total = 3.2 nM, MPE as common agent.

For `O=C([O-])CN(CCN(CC(=O)[O-])CC(=O)[O-])CC(=O)[O-].[Fe+2].[H+].[H+]` [EDTA, Fe^+2-EDTA], the “agent concentration at maximum turnover” value was approximately 1.3 µM and the “effect of ascorbate on DNA-cleavage” value is recorded as “critical for efficient DNA-cleavage”. For the setting “[DNA]total = 32 nM”, the “Comparison to EDTA (fold enhancement over EDTA turnover)” value was found to be 1.0 fold, the “Turnover (Vmax/[Agent])” value was determined as 1.5e-06 s⁻¹ and the Vmax is 0.002 ± 0.001^e nM sec^−1.

On to bleomycin, for which the “agent concentration at maximum turnover (Vapp/[cleavage agent])” value amounted to 2.5 nM and the “effect of ascorbate on DNA-cleavage” value was “did not affect”. Besides, the “detection of agent by the assay (sensitivity range)” value (3.2 nM break light A, conditions described) is “nM range”. Further, for the setting “[DNA]total = 3.2 nM”, the “Turnover (Vmax/[Agent])” value worked out at 0.001 s⁻¹ and the Vmax is 0.009 ± 0.001^d nM sec^−1. For the same molecule, the “Comparison to EDTA (fold enhancement over EDTA turnover)” value under setting [1] is given as 6.8 × 10^4 fold. Also, the “additional increase of cleavage efficiency over MPE” value (from Table 1) turned out to be 10 fold.

For the molecule esperamicin A1, the “maximum fluorescence upon cleavage, compared with DNaseI” value (3.2 nM break light A, excess DTT) is reported as “identical to that observed with DNaseI”. Moreover, for the setting “[DNA]total = 3.2 nM”, the “Turnover (Vmax/[Agent])” value came out at 0.009 s⁻¹ and the Vmax was 0.007 ± 0.001^d nM sec^−1. Besides, under setting [1], the “Comparison to EDTA (fold enhancement over EDTA turnover)” value is recorded as 6.1 × 10^5 fold. The “enhancement of cleavage efficiency over bleomycin” value (from Table 1) is approximately 10 fold.

For “methidiumpropyl-Fe^+2-EDTA [Methidiumpropyl-EDTA]”, the “agent concentration at maximum turnover” value was approximately 0.05 µM, the “agent concentration at maximum turnover (Vapp/[cleavage agent])” value stood at 125 nM and the “effect of ascorbate on DNA-cleavage” value is “critical for efficient DNA-cleavage”. Under “[DNA]total = 3.2 nM”, the “Turnover (Vmax/[Agent])” value was 2.4e-05 s⁻¹ and the Vmax is 0.003 ± 0.001^d nM sec^−1. Besides, the “Comparison to EDTA (fold enhancement over EDTA turnover)” value under setting [1] was 1.6 × 10^3 fold. For the same molecule, under “[DNA]total = 32 nM”, the “Comparison to EDTA (fold enhancement over EDTA turnover)” value is 1.6 × 10^3 fold, the “Turnover (Vmax/[Agent])” value worked out at 0.002 s⁻¹ and the Vmax is listed as 0.118 ± 0.004^e nM sec^−1. The “enhancement of cleavage efficiency in comparison to Fe^+2-EDTA” value (from Table 1) is given as ~10^3 fold.
